# Patent US20240300977A1, “INHIBITORS OF DNA-DEPENDENT PROTEIN KINASE AND COMPOSITIONS AND USES THEREOF” (Intellia Therapeutics, Inc., priority 2021, published 2024)
# What was measured:
# NK cells [1] = assay: Percent editing at AAVS1 in NK cells by NGS; type: cell-based, human
# Procedure: Genomic DNA was extracted using QuickExtract™ DNA Extraction Solution (Lucigen, Cat. QE09050) according to manufacturer's protocol.
# To quantitatively determine the efficiency of editing at the target location in the genome, next generation sequencing was utilized to identify the presence of insertions and deletions introduced by gene editing. […] Primer sequence design was done as is standard in the field.
# Additional PCR was performed according to the manufacturer's protocols (Illumina) to add chemistry for sequencing. The amplicons were sequenced on an Illumina MiSeq instrument. The reads were aligned to the human (e.g., hg38) reference genome after eliminating those having low quality scores. The resulting files containing the reads were mapped to the reference genome (BAM files), where reads that overlapped the target region of interest were selected and the number of wild-type reads versus the number of reads which contain an insertion or deletion (“indel”) was calculated.
# The editing percentage (e.g., the “editing efficiency” or “percent editing”) is defined as the total number of sequence reads with insertions or deletions (“indels”) over the total number of sequence reads, including wild type.
# NK cells [2] = assay: GFP insertion at AAVS1 in NK cells, flow cytometry; type: cell-based, human; conditions: LNP + AAV, seven days
# Procedure: NK cells were assessed for the impact of DNA protein kinase inhibitors (DNA-PKI) on indel and insertion rates. […] A subset of samples was also treated with AAV encoding a GFP coding sequence flanked by regions of homology to the AAVS1 edit site (SEQ ID NO: 16). NK cells were isolated from a commercially obtained leukopak using the EasySep Human NK Cell Isolation Kit ([…], Cat. No. 17955) according to the manufacturer's protocol. […] NK cells were plated at 50,000 cells per well in triplicate in OpTmizer supplemented as described above with DNA-PKI at concentrations indicated in Tables 10 and 11. […] For a subset of samples, AAV encoding GFP flanked by regions homologous to the AAVS1 edit site were added at a multiplicity of infection (MOI) of 600,000 genome copies following editing. At seven days post LNP composition treatment, cells were phenotyped by flow cytometry to measure GFP insertion rates. Briefly, NK cells were incubated with antibodies targeting CD3 (Biolegend, Cat. No. 317336) and CD56 (Biolegend, Cat. No. 318310). […] NK cells were gated on size, CD3/CD56 status, and GFP expression. High GFP-expressing cells were gated as targeted GFP […] locus and low GFP-expressing cells were gated as episomal retention.
# T cells [3] = assay: Off-target structural variation by UnIT; type: cell-based, human; conditions: T cells from Example 12, day 8 post-editing; TRAC sgRNA G013006
# From the text: (§1) On day 8 post-editing, T cells from Example 12 from the untreated, unedited, Compound 3 and Compound 4 guides samples were collected, spun down and the pellets were directly used as input material for gDNA isolation using “Zymo Quick DNA/RNA Mag Beads Kit” (Zymo Cat. R2131). The UnIT structural variant characterization assay was applied to these gDNA samples. High molecular weight genomic DNA is simultaneously fragmented and sequence-tagged (‘tagmented’) with the Tn5 transposase and an adapter with a partial Illumina P5 sequence and a 12 bp unique molecular identifier (UMI). Two sequential PCRs using a primer to P5 and hemi-nested gene specific primers (GSP) imparting the Illumina the P7 sequence to create two Illumina compatible NGS libraries per sample (Illumina, Ref 15033624). Sequencing across both directions of the CRISPR/Cas9 targeted cut site with the two libraries allows the inference and quantification of structural variants in DNA repair outcomes after genome editing. If the two fragments were aligned to different chromosomes, the SV was classified as an “inter-chromosomal translocation.” The magnitude of structural variation was shown in FIG. 9A and Table 18.
# T cells [4] = assay: Insertion percent in T cells of Example 17; type: cell-based, human; conditions: T cells from Example 12; FIG. 9B
# From the text: as §1
# T cells [5] = assay: SpyCas9 TRAC editing (indel) in T cells by NGS with or without Compound 4; type: cell-based, human; conditions: day 4 NGS
# Procedure: Upon thaw, T cells were plated at a density of 1.0×10^6 cells/mL in T cell growth media (TCGM) composed of CTS OpTmizer T Cell Expansion SFM and T Cell Expansion Supplement (ThermoFisher Cat. A1048501), 5% human AB serum (GeminiBio, Cat. 100-512) 1× Penicillin-Streptomycin, 1× Glutamax, 10 mM HEPES, 200 U/mL recombinant human interleukin-2 (Peprotech, Cat. 200-02), 5 ng/ml recombinant human interleukin 7 (Peprotech, Cat. 200-07), and 5 ng/mL recombinant human interleukin 15 (Peprotech, Cat. 200-15). T cells were rested in this media for 24 hours, at which time they were activated with T Cell TransAct™, human reagent (Miltenyi, Cat. 130-111-160) added at a 1:100 ratio by volume.
# 48 hours post-activation, T cells were harvested, centrifuged at 500 g for 5 min, and resuspended at a concentration of 6.41×10^5 T cells/mL in T cell plating media (TCPM): a serum-free version of TCGM containing 400 U/mL recombinant human interleukin-2 (Peprotech, Cat. 200-02), 10 ng/mL recombinant human interleukin 7 (Peprotech, Cat. 200-07), and 10 ng/mL recombinant human interleukin 15 (Peprotech, Cat. 200-15). 50 μL of T cells in TCPM (3.2×10^4 T cells) were added per well to be treated in flat-bottom 96-well plates.
# LNPs were generated as described in Example 1 at a ratio of 50/38.5/10/1.5 (Lipid A/cholesterol/DSPC/PEG2k-DMG).
# Mix “A” was serially diluted 1:2 in TCTM, and mixed 1:1 by volume with mix “B”. 25 μL of the resulting solution was added to 3.2×10^4 T cells in 96-well plates.
# Next, a repair template in the form of an adeno-associated virus (AAV) encoding the HD3 TCR (SEQ ID NO: 18 was diluted in TCTM to 3.84×10^11 genome copies/mL in the presence or absence of Compound 4 diluted to 2 μM. 25 μL of the resulting solution was added to T cells that were treated with LNPs in the prior step. To enable editing assessments by NGS without the interference of repair templates, an arm of this experiment received 25 μL of TCTM with or without Compound 4 diluted to 2 μM in the absence of AAVs.
# Following the addition of LNPs, repair templates and Compound 4, T cells were incubated at 37° C. for 48 hours, at which time T cells were centrifuged at 500 g for 5 min, resuspended in 200 μL of TCGM and returned to the incubator.
# TRBC = assay: Off-target site validation, rhAmpSeq; conditions: gRNA G016239 targeting TRBC; of 92 off-target sites; with the named DNA-PKI or none
# T cells [6] = assay: TRAC LNP editing and GFP insertion in activated T cells with DNA-PK inhibitors, flow cytometry; conditions: GFP positive of the CD3 negative T cells, day 5 post-edit
compound,measurement,setting,value
"Cc1cc2ncnn2cc1Nc1ncc2c(n1)n(C1CCC3(CC1)CC3)c(=O)n2C [Compound 4, 7-methyl-2-((7-methyl-[1,2,4]triazolo[1,5-a]pyridin-6-yl)amino)-9-(spiro[2.5]octan-6-yl)-7,9-dihydro-8H-purin-8-one]",Mean percent editing at AAVS1,NK cells [1]; DNA-PKI 0.125 uM,96.77%
same,Mean percent editing at AAVS1,NK cells [1]; DNA-PKI 0.5 uM,97.67%
same,Percent of NK cells with high GFP expression (Mean),NK cells [2]; DNA-PKI 0.125 uM,88.10%
same,Percent of NK cells with high GFP expression (Mean),NK cells [2]; DNA-PKI 0.5 uM,90.27%
same,Unintended Structural Variance (Average),T cells [3],1.46%
same,Insertion Percent (Average),T cells [4],67.82%
same,Mean TRAC Editing %,"T cells [5]; sgRNA 0 μg/mL, Spy Cas9 + Compound 4",0.20%
same,Mean TRAC Editing %,"T cells [5]; sgRNA 0.026 μg/mL, Spy Cas9 + Compound 4",48.55%
same,Mean TRAC Editing %,"T cells [5]; sgRNA 0.052 μg/mL, Spy Cas9 + Compound 4",63.45%
same,Mean TRAC Editing %,"T cells [5]; sgRNA 0.104 μg/mL, Spy Cas9 + Compound 4",79.25%
same,Mean TRAC Editing %,"T cells [5]; sgRNA 0.209 μg/mL, Spy Cas9 + Compound 4",89.00%
same,Mean TRAC Editing %,"T cells [5]; sgRNA 0.418 μg/mL, Spy Cas9 + Compound 4",94.45%
same,Mean TRAC Editing %,"T cells [5]; sgRNA 0.835 μg/mL, Spy Cas9 + Compound 4",96.15%
same,Mean TRAC Editing %,"T cells [5]; sgRNA 1.67 μg/mL, Spy Cas9 + Compound 4 (2 μM stock, 25 μL added)",96.10%
same,Sites Validated,TRBC,0
same,Mean % CD3^−/GFP+ Cells (n = 3),T cells [6]; compound 0.0625 uM,58.13%
same,Mean % CD3^−/GFP+ Cells (n = 3),T cells [6]; compound 1 uM,80.07%
